Assay [1] deals with NCI-H460. Nature of the assay: Antiproliferative activity against human NCI-H460 cells incubated for 24 hrs followed by incubating in drug-free medium for 48 hrs and measured by SRB assay. Format: functional, cell-based. Background: The SRB assay estimates cell density from bound dye.
Assay [2] in a line: Antiproliferative activity against human H460-R9A cells incubated for 24 hrs followed by incubating in drug-free medium for 48 hrs and measured by SRB assay. Format: functional, cell-based.
Assay [3] can be described thus: Resistance index, ratio of IC50 for human NCI-H460 cells to IC50 for H460-R9A cells. Format: functional.
The test system of another assay is A2780. As to the kind of experiment: Antiproliferative activity against human A2780 cells incubated for 24 hrs followed by incubating in drug-free medium for 48 hrs and measured by SRB assay. Format: functional, cell-based.
A short description of assay [4]: Antiproliferative activity against multi-drug resistant human A2780-DX cells incubated for 24 hrs followed by incubating in drug-free medium for 48 hrs and measured by SRB assay. Format: functional, cell-based.
A short description of assay [5]: Resistance index, ratio of IC50 for human A2780 cells to IC50 for A2780-DX cells. Format: functional.
The next assay concerns H460-R9A. Nature of the assay: Antiproliferative activity against human H460-R9A cells at 3.75 to 60 uM after 72 hrs by MTT assay. As to conditions: dose 3.75-60 µM. Format: functional, cell-based. A general note: Tetrazolium assays rely on reduction of a dye to a coloured formazan, in cell work by metabolically active cells.
The test system of another assay is L-428. As to the kind of experiment: Antiproliferative activity against human L-428 cells incubated for 24 hrs followed by incubating in drug-free medium for 48 hrs and measured by SRB assay. Format: functional, cell-based.
Assay [6] addresses T1, DNA polymerase alpha catalytic subunit (Homo sapiens) (UniProt P09884).
T1 sequence (whole entry): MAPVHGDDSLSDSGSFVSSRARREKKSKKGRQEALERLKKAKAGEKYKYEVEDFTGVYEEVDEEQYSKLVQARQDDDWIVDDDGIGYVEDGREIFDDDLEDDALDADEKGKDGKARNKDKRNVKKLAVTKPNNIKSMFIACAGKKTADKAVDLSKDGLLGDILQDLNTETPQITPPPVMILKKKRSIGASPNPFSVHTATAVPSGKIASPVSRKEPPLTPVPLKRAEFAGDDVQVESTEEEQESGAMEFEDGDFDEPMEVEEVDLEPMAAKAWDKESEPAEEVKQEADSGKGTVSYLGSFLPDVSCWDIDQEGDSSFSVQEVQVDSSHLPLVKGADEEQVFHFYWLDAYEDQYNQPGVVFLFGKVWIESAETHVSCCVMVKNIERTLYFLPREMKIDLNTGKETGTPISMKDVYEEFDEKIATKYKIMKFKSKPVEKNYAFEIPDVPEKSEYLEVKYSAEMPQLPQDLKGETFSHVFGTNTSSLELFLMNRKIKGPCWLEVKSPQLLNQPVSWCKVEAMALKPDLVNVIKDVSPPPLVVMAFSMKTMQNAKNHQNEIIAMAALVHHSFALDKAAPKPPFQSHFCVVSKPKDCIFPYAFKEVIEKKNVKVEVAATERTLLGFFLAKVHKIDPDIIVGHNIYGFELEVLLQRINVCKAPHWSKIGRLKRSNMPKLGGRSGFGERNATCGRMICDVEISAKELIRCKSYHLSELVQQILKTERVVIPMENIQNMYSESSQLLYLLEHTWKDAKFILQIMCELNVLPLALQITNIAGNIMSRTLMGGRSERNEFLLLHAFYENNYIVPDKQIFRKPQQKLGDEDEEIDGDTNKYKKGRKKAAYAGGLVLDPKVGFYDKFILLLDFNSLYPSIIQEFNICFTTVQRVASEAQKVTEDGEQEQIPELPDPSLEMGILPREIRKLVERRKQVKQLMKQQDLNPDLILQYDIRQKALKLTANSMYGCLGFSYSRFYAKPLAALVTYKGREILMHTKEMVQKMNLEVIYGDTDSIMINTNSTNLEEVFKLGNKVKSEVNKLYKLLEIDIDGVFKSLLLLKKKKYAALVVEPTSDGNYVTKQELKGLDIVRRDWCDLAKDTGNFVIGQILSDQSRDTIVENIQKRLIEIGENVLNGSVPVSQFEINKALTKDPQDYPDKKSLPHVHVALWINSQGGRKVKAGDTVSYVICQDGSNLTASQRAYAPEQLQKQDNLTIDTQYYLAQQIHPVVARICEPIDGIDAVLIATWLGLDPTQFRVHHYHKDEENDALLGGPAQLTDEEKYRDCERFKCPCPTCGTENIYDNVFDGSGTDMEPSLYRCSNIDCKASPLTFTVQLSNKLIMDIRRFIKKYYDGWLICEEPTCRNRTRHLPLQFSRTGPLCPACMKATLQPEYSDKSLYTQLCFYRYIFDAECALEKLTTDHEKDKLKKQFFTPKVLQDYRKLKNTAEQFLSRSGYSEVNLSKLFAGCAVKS
As to the kind of experiment: Inhibition of POLA1 in human NCI-H460 cells at 7.4 uM assessed as upregulation of p21 expression and measured by Western blot analysis. Format: cell-based. (A western blot detects proteins with antibodies after separation by electrophoresis.)

The subject of assay [7] is NCI-H460. As to the kind of experiment: Induction of DNA damage in human NCI-H460 cells at 7.4 uM assessed as increase in p-H2AX levels and measured by Western blot analysis. Format: functional, cell-based.
In assay [8] the test system is NCI-H460. Nature of the assay: Antiproliferative activity against human NCI-H460 cells at 7.4 uM assessed as reduction in p-ERK1/2 level and measured by Western blot analysis. Format: functional, cell-based.
For assay [9], the system named is NCI-H460. Nature of the assay: Antiproliferative activity against human NCI-H460 cells at 7.4 uM assessed as reduction in PIN1 level and measured by Western blot analysis. Format: functional, cell-based.
Assay [10] concerns NCI-H460. As to the kind of experiment: Induction of cell cycle arrest in human NCI-H460 cells assessed as accumulation of cells at sub-G1 phase at 4.2 uM after 72 hrs by flow cytometry (reference value: 1.1%). Format: functional.
In assay [11] the test system is NCI-H460. Nature of the assay: Induction of cell cycle arrest in human NCI-H460 cells assessed as accumulation of cells at G0/1 phase at 4.2 uM after 72 hrs by flow cytometry (reference value: 46.8%). Format: functional.
Assay [12] deals with NCI-H460. As to the kind of experiment: Induction of cell cycle arrest in human NCI-H460 cells assessed as accumulation of cells at S phase at 4.2 uM after 72 hrs by flow cytometry (reference value: 32.1%). Format: functional.
Assay [13] deals with NCI-H460. As to the kind of experiment: Induction of cell cycle arrest in human NCI-H460 cells assessed as accumulation of cells at G2/M phase at 4.2 uM after 72 hrs by flow cytometry (reference value: 21.1%). Format: functional.
The nature of assay [14]: Induction of cell cycle arrest in human H460-R9A cells assessed as accumulation of cells at sub-G1 phase at 1.9 uM after 72 hrs by flow cytometry (reference value: 1.5%). Format: functional.
The nature of assay [15]: Induction of cell cycle arrest in human H460-R9A cells assessed as accumulation of cells at G0/1 phase at 1.9 uM after 72 hrs by flow cytometry (reference value: 50.1%). Format: functional.
The nature of assay [16]: Induction of cell cycle arrest in human H460-R9A cells assessed as accumulation of cells at S phase at 1.9 uM after 72 hrs by flow cytometry (reference value: 34.5%). Format: functional.
The nature of assay [17]: Induction of cell cycle arrest in human H460-R9A cells assessed as accumulation of cells at G2/M phase at 1.9 uM after 72 hrs by flow cytometry (reference value: 15.4%). Format: functional.

These results are taken from ChEMBL document CHEMBL5154648, “Antitumor activity of novel POLA1-HDAC11 dual inhibitors” (Eur J Med Chem, 2022).

The source made the active and inactive calls. The calls are words filed in the database; no cut-off is given here.

Take `CC(C)(Oc1ccc(-c2ccc(C=CC(=O)O)cc2)cc1C12CC3CC(CC(C3)C1)C2)C(=O)NO`: the 50% inhibitory concentration (IC50) (in general, the concentration at which inhibition is half-maximal) in the assay on NCI-H460 [1] worked out at 1.3 µM; in [2] it was 7.3 µM. In addition, the “Ratio IC50” value in assay [3] worked out at 5.6.
As for `O=C(O)C=Cc1ccc(-c2ccc(OCC(=O)O)c(C34CC5CC(CC(C5)C3)C4)c2)cc1`, the 50% inhibitory concentration (IC50) (in the assay on NCI-H460 [1]; in assay [2]) was more than 10 µM in each case.
Consider `O=C(O)C=Cc1ccc(-c2ccc(OCCCC(=O)NO)c(C34CC5CC(CC(C5)C3)C4)c2)cc1`, for which the half-maximal inhibitory concentration (IC50) in the assay with NCI-H460 [1] turned out to be 1.7 µM; in assay [2], 8.3 µM; in the assay on A2780, 4.2 µM; in assay [4], 3.9 µM. The results for the “Ratio IC50” value in assay [3] and in assay [5] were 4.9 and 0.9, respectively.
Turning to `O=C(O)C=Cc1ccc(-c2ccc(OCCCCC(=O)NO)c(C34CC5CC(CC(C5)C3)C4)c2)cc1`, the IC50 with NCI-H460 [1] was 1.9 µM; in assay [2], 8.6 µM; in the assay with A2780, 3.6 µM; in [4] it was 6.4 µM. The “Ratio IC50” value in [3] was determined as 4.5; in assay [5] it was 1.7.
For the molecule `O=C(O)C=Cc1ccc(-c2ccc(OCCC(=O)NO)c(C34CC5CC(CC(C5)C3)C4)c2)cc1`, the IC50 was 8.3 µM in the assay on NCI-H460 [1] and 10.6 µM in assay [2]. In addition, in assay [3], the “Ratio IC50” value was 1.3.
Turning to `O=C(O)C=Cc1ccc(-c2ccc(OCCC(=O)O)c(C34CC5CC(CC(C5)C3)C4)c2)cc1`, the IC50 was 10 µM in the assay with NCI-H460 [1], more than 10 µM in [2], 10 µM in the assay with A2780 and 23.8 µM in [4]. Moreover, the “Ratio IC50” value in assay [5] was determined as 2.38.
For the molecule `CCCCCCCCCCCCCCCCNNC(=O)c1cccs1`, the outcome with H460-R9A was Active.
With `O=C(CCCCCCC(=O)Nc1ccccc1)NO` [VORINOSTAT], the concentration for half-maximal inhibition (IC50) in [4] worked out at 33 µM; with L-428, 2.3 µM. Moreover, the inhibition result in assay [6] was “Active”. Besides, the result with NCI-H460 [7], in the assay with NCI-H460 [8] and in the assay with NCI-H460 [9] was Active. The Activity in the assay on NCI-H460 [10] turned out to be 1.8%; with NCI-H460 [11], 65.2%; in the assay with NCI-H460 [12], 11.7%; in the assay with NCI-H460 [13] it was 23.1%; in [14], 2.1%; in assay [15] it was 62.2%. The Activity is listed as 14.7% in assay [16] and 21% in [17].
Consider `O=C(O)C=Cc1ccc(-c2ccc(OCCCCCCCC(=O)NO)c(C34CC5CC(CC(C5)C3)C4)c2)cc1`, for which the IC50 stood at 5.5 µM in the assay on NCI-H460 [1] and 9.6 µM in [2]. Besides, in [3], the “Ratio IC50” value turned out to be 1.7.
